{"source": "patent EP0419676B1", "about": "“THIONAPHTHALENE DERIVATIVES, METHOD OF PRODUCING THE SAME, AND ANTIALLERGIC AGENT CONTAINING THE SAME” (TEIJIN LIMITED, priority 1989, dated 1990)", "key": {"[1]": {"tested_on": "peritoneal mast cells of rat", "assay": "Histamine release from peritoneal mast cells induced by Compound 48/80 (non-allergic release)", "assay_type": "cell-based, Sprague-Dawley strain male rat", "details": "for inhibition at 10 µM: Rattus norvegicus, Mast cell, 10 min, read-out: Inhibitory ratio (%) histamine release", "description": "(§1) To a Sprague-Dawley strain male rat (10 weeks or older) was intraperitoneally administered, under ether anesthesia, a diluted rat anti-DNP-As IgE serum at 2 ml/kg. After 16 hours, cells were recovered by washing intraperitoneally with a Tyrode solution containing 0.5% heparin (Ca⁺⁺, Mg⁺⁺, free). Mast cells (5 x 10⁴) separated by overlying in the 30% Ficoll/Tyrode solution and centrifugation were reliberated into the Tyrode solution (Ca⁺⁺, Mg⁺⁺) and incubated with the addition of the drug solution shown in Table 3-1, for 10 minutes, and then DNP-As and phosphatidylserine were added to final concentrations of 20 µg/ml and 25 µg/ml, respectively, followed by incubation for 10 minutes. The reaction was stopped by ice-cooling, and the histamine release in the supernatant was determined by fluorophotometry. Regarding the non-allergy release, 5 x 10⁴ of mast cells were investigated by incubation with 0.5 µg/ml of Compound 48/80 for 10 minutes, after the addition of the drug solution shown in Table 3-2."}, "[2]": {"tested_on": "anti-TNP IgE antibody production", "assay": "IgE antibody production suppressive effect: anti-TNP IgE production by cultured spleen cells of TNP-KLH-immunized mouse", "assay_type": "cell-based, BALB/C mouse", "description": "An 8 weeks old BALB/C mouse (♀) was immunized by an intraperitoneal injection of 10 µg of TNP-KLH (trinitrophenyl-key hole limpet hemocyanine) and 2 mg of aluminum hydroxide gel, and after 3 weeks, 1 µg of TNP-KLH and 2 mg of aluminum hydroxide gel were boosted, and 4 weeks later, the spleen was enucleated.\nThe spleen cells (6 x 10⁶) were cultured together with 10 ng/ml of TNP-KLH, in the presence or non-presence of the compound of the present invention (10⁻⁵ to 10⁻⁷ M), in 1 ml of RPMI-1640 medium (containing 10% fetal bovine serum) for 2 days, followed by washing to remove the antigen and the drug, and the washed cells were resuspended in a fresh medium containing no antigen and further cultured for 5 days. All cultivations were performed under 5% CO₂ at 37°C. After completion of the culturing, the supernatant was recovered, and the concentration of anti-TNP IgE or anti-TNP IgG antibody was determined by an antigen and isotype specific immunoassay. […]\nThe values in the brackets ( ) indicate the values of the spontaneous IgE production amount observed when TNP-KLH was not added, and represent the IgE production dependency on the antigen.\nThe same experimental methods were used for the compounds shown below, and IgE antibody production suppressive effects were evaluated. […] (Exemplary compound VI - (1)): methyl (6,7-dimethoxy-2-naphthylthio)acetate (Exemplary compound V - (4)): N-(2-methoxycarbonylphenyl)-(6,7-dihydroxy-2-naphthylthio)acetamide (Exemplary compound V - (2)): N-tetrazolyl(6,7-dihydroxy-2-naphthylthio)acetamide Table 2"}, "[3]": {"tested_on": "Rat homologous PCA reaction", "assay": "Rat homologous PCA reaction", "assay_type": "in vivo, Sprague-Dawley strain male rat", "details": "p.o., 1 hour before antigen", "description": "The back of a Sprague-Dawley strain male rat (6 - 8 w) was depilated, and at one site on both sides thereof, 0.1 ml of a rat anti-ovalbumin IgE serum diluted with physiological saline was intradermally injected under ether anesthesia. After 48 hours, 25 mg/kg of ovalbumin, 25 mg/kg of Evans Blue were intravenously administered to induce the PCA reaction, and after 30 minutes, the skin was peeled off, dipped in a mixture of 0.3% Na₂SO₄·10H₂O/Acetate (3:7), and the dye amount infiltrated was quantitated by absorbance at 620 nm. The drug listed in Table 4 was suspended in 5% gum arabic solution and orally administered 1 hour before the antigen administration."}, "Lipoxygenase": {"target": "T1, Lipoxygenase (Homo sapiens, UniProt P09917)", "T1 construct": "heparin-treated vein blood of a healthy person; from tissue; host or cells: human heparinised venous whole blood (leukocytes)", "T1 sequence (P09917 1-674)": "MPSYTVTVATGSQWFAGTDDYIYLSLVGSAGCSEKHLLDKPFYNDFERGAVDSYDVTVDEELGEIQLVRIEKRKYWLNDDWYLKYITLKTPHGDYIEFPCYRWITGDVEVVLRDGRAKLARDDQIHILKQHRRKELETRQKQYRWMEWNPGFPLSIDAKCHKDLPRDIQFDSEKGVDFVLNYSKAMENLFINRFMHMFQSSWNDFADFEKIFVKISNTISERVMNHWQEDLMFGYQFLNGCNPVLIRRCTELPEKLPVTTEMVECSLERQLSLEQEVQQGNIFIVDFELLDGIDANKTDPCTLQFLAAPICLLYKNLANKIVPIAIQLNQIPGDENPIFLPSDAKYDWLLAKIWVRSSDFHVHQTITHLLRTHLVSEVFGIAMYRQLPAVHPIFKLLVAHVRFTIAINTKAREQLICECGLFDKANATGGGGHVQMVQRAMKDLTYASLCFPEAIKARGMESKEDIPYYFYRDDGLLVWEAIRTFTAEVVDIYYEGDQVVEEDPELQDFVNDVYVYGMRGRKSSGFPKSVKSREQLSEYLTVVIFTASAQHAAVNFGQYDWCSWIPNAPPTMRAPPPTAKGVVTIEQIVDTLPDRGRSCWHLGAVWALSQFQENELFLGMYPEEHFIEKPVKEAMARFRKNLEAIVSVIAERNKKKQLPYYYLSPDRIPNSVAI", "assay": "Lipoxygenase inhibitory activity evaluation: LTB4 and 5-HETE production in A23187-stimulated whole blood", "assay_type": "cell-based, healthy man", "details": "10⁻⁵ M, A23187 25 µM; for Amount of LTB₄ produced: no addition 125; for Amount of 5-HETE produced: no addition 130", "description": "To 1 ml of heparin-treated vein blood of a healthy person without an administration of drugs was added 1 µl of a DMSO solution of the drug test sample listed in Table 5 (final 10⁻⁵ M), and after treatment at 37°C for 5 minutes, 5 µl of a DMSO solution of A23187 was added (final 25 µM) and the treatment carried out at 37°C for 15 minutes, followed by ice-cooling. After the addition of 10 µl of a DMSO solution of 100 ng of 15-HETE as the internal standard substance for quantitation, 0.8 ml of acetonitrile was added, and the precipitates formed were removed by centrifugation. Then, LTB₄ and 5-HETE in the supernatant were subjected to HPLC separation and quantitation (ref. F.J. Sweeney, et al., Prostaglandins Leukotrienes & Med., 28, 73 (1987))."}, "[4]": {"tested_on": "peritoneal mast cells of rat", "assay": "Histamine release from IgE-sensitized peritoneal mast cells, DNP-As antigen (allergic release)", "assay_type": "cell-based, Sprague-Dawley strain male rat", "description": "as §1, with “fluorophotometry.” for “fluorophotometry. Regarding the non-allergy release, 5 x 10⁴ of mast cells were investigated by incubation with 0.5 µg/ml of Compound 48/80 for 10 minutes, after the addition of the drug solution shown in Table 3-2.”"}, "[5]": {"details": "Experiment 2, 10⁻⁵ M, Compound 48/80 0.5 µg/ml"}, "[6]": {"details": "Experiment 1, 10⁻⁵ M, Compound 48/80 0.5 µg/ml"}}, "note": "Where two headings read alike, the source gives them in different places."}
{"compound": "COC(=O)CSc1ccc2cc(OC(=O)OC(C)C)c(OC(=O)OC(C)C)cc2c1", "note": "[Exemplary compound VI-(4), Methyl (6,7-diisopropoxycarbonyloxy-2-naphthylthio)acetate]", "values": [{"measurement": "inhibition at 10 µM", "setting": "[1]; [5]", "result": 17.8, "unit": "%"}]}
{"compound": "O=C(CSc1ccc2cc(O)c(O)cc2c1)Nc1nnn[nH]1", "note": "[Exemplary compound V-(2), N-5-tetrazolyl(6,7-dihydroxy-2-naphthylthio)-acetamide]", "values": [{"measurement": "Suppressive ratio (IgE antibody production)", "setting": "[2]; 10⁻⁷ M", "result": 11, "unit": "%"}, {"measurement": "inhibition at 10 µM", "setting": "[1]; [6]", "result": 2.2, "unit": "%"}, {"measurement": "Suppressive ratio (%) Experiment 1", "setting": "[3]; 25 mg/kg", "result": -0.3, "unit": "%"}]}
{"compound": "O=C(CSc1ccc2cc(O)c(O)cc2c1)NCCCCN1CCN(C(c2ccc(F)cc2)c2ccc(F)cc2)CC1", "note": "[Exemplary compound V-(6), 1-[4-[(6,7-dihydroxy-2-naphthylthio)acetylamino]-butyl]-4-[bis(4-fluorophenyl)methyl]piperazine]", "values": [{"measurement": "inhibition at 10 µM", "setting": "[1]; [6]", "result": 5.9, "unit": "%"}, {"measurement": "Suppressive ratio (%) Experiment 2", "setting": "[3]; 25 mg/kg", "result": 15.9, "unit": "%"}]}
{"compound": "COC(=O)CSc1ccc2cc(OC)c(OC)cc2c1", "note": "[Exemplary compound VI-(1), Methyl (6,7-dimethoxy-2-naphthylthio)acetate]", "values": [{"measurement": "Suppressive ratio (IgE antibody production)", "setting": "[2]; 10⁻⁶ M", "result": 69, "unit": "%"}, {"measurement": "inhibition at 10 µM", "setting": "[1]; [5]", "result": 3.7, "unit": "%"}]}
{"compound": "O=C(CSc1ccc2cc(O)c(O)cc2c1)Nc1ccccc1-c1nnn[nH]1", "note": "[Exemplary compound V-(5), N-[2-(5-tetrazolyl)phenyl](6,7-dihydroxy-2-naphthylthio)acetamide]", "values": [{"measurement": "inhibition at 10 µM", "setting": "[1]; [6]", "result": 28.1, "unit": "%"}, {"measurement": "Suppressive ratio (%) Experiment 2", "setting": "[3]; 25 mg/kg", "result": 16.5, "unit": "%"}]}
{"compound": "COC(=O)CSc1ccc2cc(OC(C)=O)c(OC(C)=O)cc2c1", "note": "[Exemplary compound VI-(2), Methyl (6,7-diacetoxy-2-naphthyithio)acetate]", "values": [{"measurement": "Inhibitory ratio (%) histamine release", "setting": "[1]; [5]", "result": 2.6, "unit": "%"}]}
{"compound": "Oc1cc2ccc(SCc3ccccc3)cc2cc1O", "note": "[II-(1)]", "values": [{"measurement": "5-HETE (Inhibitory ratio %)", "setting": "Lipoxygenase", "result": 66, "unit": "%"}, {"measurement": "LTB₄ (Inhibitory ratio %)", "setting": "Lipoxygenase", "result": 76, "unit": "%"}, {"measurement": "Amount of LTB₄ produced", "setting": "Lipoxygenase", "result": 30, "unit": "ng/ml/plasma"}, {"measurement": "Amount of 5-HETE produced", "setting": "Lipoxygenase", "result": 45, "unit": "ng/ml/plasma"}]}
{"compound": "COC(=O)c1ccccc1NC(=O)CSc1ccc2cc(O)c(O)cc2c1", "note": "[Exemplary compound V-(4), N-(2-methoxycarbonylphenyl)(6,7-dihydroxy-2-naphthylthio)acetamide]", "values": [{"measurement": "Suppressive ratio (IgE antibody production)", "setting": "[2]; 10⁻⁶ M", "result": 7, "unit": "%"}, {"measurement": "Suppressive ratio (IgE antibody production)", "setting": "[2]; 10⁻⁷ M", "result": 26, "unit": "%"}, {"measurement": "inhibition at 10 µM", "setting": "[1]; [6]", "result": -0.8, "unit": "%"}, {"measurement": "Suppressive ratio (%) Experiment 1", "setting": "[3]; 25 mg/kg", "result": 0, "unit": "%"}]}
{"compound": "COC(=O)C(C)Sc1ccc2cc(O)c(O)cc2c1", "note": "(stereo not shown) [Exemplary compound VII-(1), Methyl 2-(6,7-dihydroxy-2-naphthylthio)-propionate]", "values": [{"measurement": "5-HETE (Inhibitory ratio %)", "setting": "Lipoxygenase", "result": 69, "unit": "%"}, {"measurement": "LTB₄ (Inhibitory ratio %)", "setting": "Lipoxygenase", "result": 72, "unit": "%"}, {"measurement": "Amount of LTB₄ produced", "setting": "Lipoxygenase", "result": 35, "unit": "ng/ml/plasma"}, {"measurement": "Amount of 5-HETE produced", "setting": "Lipoxygenase", "result": 40, "unit": "ng/ml/plasma"}]}
{"compound": "COc1ccc(/C=C/C(=O)Nc2ccccc2C(=O)O)cc1OC", "note": "[Tranilast, reference compound]", "values": [{"measurement": "inhibition at 10 µM", "setting": "[1]; [6]", "result": 24.4, "unit": "%"}, {"measurement": "Suppressive ratio (%) Experiment 1", "setting": "[3]; 200 mg/kg", "result": 24.2, "unit": "%"}, {"measurement": "Suppressive ratio (%) Experiment 2", "setting": "[3]; 200 mg/kg", "result": 26.9, "unit": "%"}]}
{"compound": "O=C(O)CSc1ccc2cc(O)c(O)cc2c1", "note": "[Exemplary compound IV-(2), (6,7-Dihydroxy-2-naphthylthio)acetic acid]", "values": [{"measurement": "suppressive action against allergy histamine release (in words)", "setting": "[4]", "result": "suppressive actions"}, {"measurement": "suppressive action against non-allergy histamine release (in words)", "setting": "[1]", "result": "weak suppressive actions"}]}
{"compound": "COC(=O)CSc1ccc2cc(OC(=O)OC)c(OC(=O)OC)cc2c1", "note": "[Exemplary compound VI-(3), Methyl (6,7-dimethoxycarbonyloxy-2-naphthylthio)acetate]", "values": [{"measurement": "inhibition at 10 µM", "setting": "[1]; [5]", "result": 7.5, "unit": "%"}]}
{"compound": "O=C(CSc1ccc2cc(O)c(O)cc2c1)Nc1ccccc1C(=O)O", "note": "[Exemplary compound V-(3), N-(2-carboxyphenyl)(6,7-dihydroxy-2-naphthylthio)acetamide]", "values": [{"measurement": "inhibition at 10 µM", "setting": "[1]; [6]", "result": 1.3, "unit": "%"}, {"measurement": "Suppressive ratio (%) Experiment 1", "setting": "[3]; 25 mg/kg", "result": -18.0, "unit": "%"}]}
